Laboratory results published in article PMC7828447, “Design, Synthesis and Biological Evaluation of Arylpyridin-2-yl Guanidine Derivatives and Cyclic Mimetics as Novel MSK1 Inhibitors. An Application in an Asthma Model” (Molecules, 2021).
Where a name gives a salt, the structure may show the parent alone. Read-outs that look alike come from different tables or passages of the source.

Experiments:
[1] = biological target: T1, human synthetic MSK1 (14-438-K, Millipore) (Homo sapiens, UniProt O75582); assay: MSK1 enzymatic inhibition assay (Kinase-Glo luminescence); assay type: biochemical; conditions: for inhibition at 1 µM: compound at 1 µM, read-out: MSK1 % Inhibition 1 µM; for inhibition at 1 µM / inhibition at 10 µM / IC50: ± Standard Deviation (n = 4); for inhibition at 10 µM: compound at 10 µM, read-out: MSK1 % Inhibition 10 µM; for IC50: 8 concentrations 0.03-100 µM, read-out: MSK1 IC50; for MSK1 inhibitory activity (in words): tested at 1 and 10 µM
T1 construct: purchased Millipore 14-438-K
Experimental: All results are summarized in Table 1, Table 2, Table 3, Table 4 and Table 5 and on Figure 4. […]
An orthogonal luminescence-based assay Kinase-Glo® (Promega, Madison, WI, USA) was used to validate the hits, quantifying the amount of the remaining ATP in the solution following the kinase reaction. Enzymatic reactions were performed up to 4h at room temperature in presence of 3 µM ATP. All compounds were tested in quadruplicates at 1 µM and 10 µM. […] Luminescence was measured with EnVision Plate Reader (Perkin Elmer).

[2] = WST-1 cytotoxicity test (cell viability); conditions: human, human pulmonary (lung) fibroblasts
Experimental: (§1) A WST1 (Roche) reagent assay was used to determine the cytotoxicity of compounds at 24 h of incubation. […] The absorbance was measured at 450 nm.

[3] = tested on: human pulmonary fibroblasts; assay: WST-1 cytotoxicity test (cell viability); conditions: for cytotoxicity (in words): WST-1, concentrations up to 30 µM; for cytotoxicity at 30 µM (in words): compound at 30 µM
Experimental: as §1

IL-6 production = assay: Inhibition of IL-6 production (ELISA) in IL-1β-stimulated primary human lung fibroblasts; conditions: for inhibition at 10 µM: read-out: Il-6 % Inhibition 10 µM; for inhibition at 30 µM: read-out: Il-6 % Inhibition 30 µM; for IC50: 0.3-30 µM, n = 4
Experimental: Primary human lung fibroblasts were cultured in DMEM/F-12 medium (Gibco Waltham, MA, USA) complemented with 10% fetal bovine serum (Gibco), penicillin (50 U/mL, Gibco), streptomycin (50 µg/mL, Gibco), L-glutamine (2 mM, Gibco), non-essential amino acids (0.1 mM, Gibco) and insulin (0.12 U/mL, Lilly, Indianapolis, IN, USA) Cells were used at passage 7.

Balb/C mice = assay: OVA-induced asthma model, inflammatory cell recruitment in BAL; assay type: in vivo; conditions: vs vehicle-treated OVA mice
Experimental: We decided to use this compound in vivo together with our newly synthesized compound 49d.
Animal experimentation was conducted in accordance with the European Communities Council Directive of 24 November 1986 (86/609/EEC) and the French ministry with the approval of the Regional Ethics Committee for animal research at the Strasbourg University (Authorization number 2015080309399690). Nine week-old male Balb/c mice (Janvier) were sensitized on days 0 and 7 by i.p. injection of ovalbumin (OVA, 50 μg, grade V, Sigma-Aldrich) adsorbed on aluminium hydroxide (2 mg, Sigma-Aldrich) in PBS. Mice were challenged intranasally (i.n.) with OVA (10 μg) in 25 μL of saline on days 18–21. Control mice received i.n. administrations of saline alone. Mice received compound (10 or 30 mg/kg) in saline solution with DMSO 5% or vehicle (saline, DMSO 5%) administered i.p. 2 h before each saline or OVA challenge. Collection of the bronchoalveolar lavage (BAL) fluid was performed 24 h after the last OVA challenge. Cell counts were assessed by flow cytometry (LSRII® cytometer, BD bioscience). BAL cells were added with FCblock (5 μL, 553142, BD bioscience) in a black microplate, incubated for 20 min at room temperature. Then, marker antibodies were added: CD45-AlexaFluor700 (103128, BioLegend, San Diego, CA, USA), CD11b-APC-Cy7 (557657, BD bioscience), CD11c-FITC (557400, BD bioscience, Franklin Lakes, NJ, USA), Gr-1-Pe-eFluor610 (61-5931-82, eBioscience). Antibodies were incubated for 30 min before DAPI (5 μL, BD bioscience) addition, and flow cytometry was performed immediately. Eosinophils were selected by CD45^+, CD11b^+, CD11C^- and GR-1^- gating.

[4] = Homo sapiens, Fibroblast, read-out: Il-6 IC50 (µM), IL-1β stimulation
[5] = 10 mg/kg i.p. 2 h before each OVA challenge
[6] = 30 mg/kg i.p. 2 h before each OVA challenge

T1 sequence (O75582 whole entry): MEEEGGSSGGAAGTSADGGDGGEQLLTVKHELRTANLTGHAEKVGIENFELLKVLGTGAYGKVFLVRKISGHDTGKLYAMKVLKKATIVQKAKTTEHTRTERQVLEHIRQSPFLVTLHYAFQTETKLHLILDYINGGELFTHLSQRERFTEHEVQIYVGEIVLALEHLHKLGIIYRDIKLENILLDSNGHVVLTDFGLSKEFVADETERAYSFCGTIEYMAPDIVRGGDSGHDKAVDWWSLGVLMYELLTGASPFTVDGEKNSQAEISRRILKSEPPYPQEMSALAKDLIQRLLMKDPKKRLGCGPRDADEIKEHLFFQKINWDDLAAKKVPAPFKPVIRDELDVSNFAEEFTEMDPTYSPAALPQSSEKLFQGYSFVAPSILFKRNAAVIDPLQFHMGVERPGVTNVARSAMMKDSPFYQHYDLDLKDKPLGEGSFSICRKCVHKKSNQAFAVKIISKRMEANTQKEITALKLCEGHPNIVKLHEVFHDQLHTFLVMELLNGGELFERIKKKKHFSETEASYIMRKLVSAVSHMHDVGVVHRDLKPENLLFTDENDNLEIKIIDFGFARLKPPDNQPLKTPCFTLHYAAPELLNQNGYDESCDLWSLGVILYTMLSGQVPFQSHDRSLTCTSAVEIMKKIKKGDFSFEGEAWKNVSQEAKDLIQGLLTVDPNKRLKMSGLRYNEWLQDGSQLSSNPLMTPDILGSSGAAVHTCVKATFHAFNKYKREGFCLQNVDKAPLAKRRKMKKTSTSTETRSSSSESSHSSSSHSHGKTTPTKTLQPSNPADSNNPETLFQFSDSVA

SMILES | inhibition at 1 µM [1] [%] | inhibition at 10 µM [1] [%] | IC50 [1] [µM] | melting point [°C] | viability at 24 h, 10 µM [2] [%] | viability at 24 h, 30 µM [2] [%] | inhibition at 10 µM (IL-6 production; Homo sapiens, Fibroblast) [%] | inhibition at 30 µM (IL-6 production; Homo sapiens, Fibroblast) [%] | IC50 (IL-6 production; [4]) [µM] | further results
N=C(N)Nc1cccc(-c2ccccc2)n1 [Compound 1a, 1-(6-phenylpyridin-2-yl)guanidine] | 4 ± 4 | 42 ± 9 | 17.9 ± 3.9 | – | 122 ± 14 | 103 ± 5 | 17 ± 7 | 60 ± 4 | 16.3 ± 6.1 | cytotoxicity (in words) [3]: non-toxic
N=C(N)Nc1cccc(-c2ccccc2F)n1 [Compound 1j, 1-[6-(2-Fluorophenyl)pyridin-2-yl] guanidiniumtrifluoroacetate] | 6 ± 3 | 45 ± 9 | 5 ± 0.5 | – | 100 ± 8 | 41 ± 9 | 42 ± 4 | – | – | cytotoxicity (in words) [3]: cytotoxic; cytotoxicity at 30 µM (in words) [3]: cytotoxic
N=C(N)Nc1cccc(-c2cc(Cl)ccc2Cl)n1 [Compound 1q, 1-[6-(2,5-Dichlorophenyl)pyridin-2-yl] guanidiniumtrifluoroacetate] | 23 ± 6 | 84 ± 4 | 0.9 ± 0.1 | – | 31 ± 19 | 13 ± 1 | – | – | – | cytotoxicity (in words) [3]: cytotoxic
NC1=Nc2cccc(-c3ccccc3)c2CN1 [Compound 37a] | -19 ± 1 | 44 ± 1 | 15.8 ± 3.2 | – | 122 ± 14 | 103 ± 5 | 18 ± 7 | 23 ± 6 | > 30 | IC50 (IL-6 production; read-out: Il-6 IC50, IL-1β stimulation): > 30 µM
Br.NC1=Nc2cccc(-c3ccc(Cl)cc3)c2CN1 [Compound 37b, 5-(4-Chlorophenyl)-3,4-dihydroquinazolin-2-amine Hydrobromide] | -9 ± 2 | 0 | – | 196 to 197 | – | – | – | – | – | –
Br.NC1=Nc2cccc(-c3cccc(Cl)c3)c2CN1 [Compound 37d, 5-(3-Chlorophenyl)-3,4-dihydroquinazolin-2-amine Hydrobromide] | -5 ± 4 | 10 ± 7 | – | 228 to 230 | – | – | – | – | – | –
Br.COc1cccc(-c2cccc3c2CNC(N)=N3)c1 [Compound 37e, 5-(3-Methoxyphenyl)-3,4-dihydroquinazolin-2-amine Hydrobromide] | -6 ± 4 | 3 ± 7 | – | 198 to 199 | – | – | – | – | – | –
Br.NC1=Nc2cccc(-c3ccccc3Cl)c2CN1 [Compound 37f, 5-(2-Chlorophenyl)-3,4-dihydroquinazolin-2-amine Hydrobromide] | 0 | 38 ± 4 | 16.4 ± 4 | 178 to 179 | 100 ± 8 | 41 ± 9 | 17 ± 5 | – | – | cytotoxicity at 30 µM (in words) [3]: cytotoxic
Br.COc1ccccc1-c1cccc2c1CNC(N)=N2 [Compound 37g, 5-(2-Methoxyphenyl)-3,4-dihydroquinazolin-2-amine Hydrobromide] | -14 ± 3 | -5 ± 1 | – | 226 to 229 | – | – | – | – | – | –
Br.Nc1nc2c(-c3ccccc3Cl)cccc2[nH]1 [Compound 49d, 4-(2-Chlorophenyl)-1H-benzo[d]imidazol-2-amine Hydrobromide] | 21 ± 5 | 71 ± 7 | 1.6 ± 0.1 | – | 85 ± 13 | 76 ± 12 | 39 ± 15 | 57 ± 2 | – | fold more potent MSK1 inhibitor compared to the parent compound ([1]; versus parent compound 1a): 10 fold; inhibition of B cell infiltration in BAL (Balb/C mice; [5]): 47 ± 1%; inhibition of eosinophil infiltration in BAL (Balb/C mice; [5]): 39 ± 3%; inhibition of total cell infiltration in BAL (Balb/C mice; [5]): 33 ± 3%; cytotoxicity (in words) [3]: non-cytotoxic
O=S(=O)(NCCNC/C=C/c1ccc(Br)cc1)c1cccc2cnccc12 [Compound H89, H89, reference compound] | 80 ± 8 | 93 ± 10 | 0.25 ± 0.06 | – | – | – | 38 ± 5 | 96 ± 1 | 10.5 ± 5.1 | –
O=S(=O)(c1cccc2cnccc12)N1CCCNCC1 [Fasudil, fasudil, reference compound] | 50 ± 10 | 82 ± 10 | – | – | – | – | 38 ± 6 | 81 ± 6 | 8.5 ± 5.1 | –

Second part, led by results:

inhibition at 1 µM [1] [%] | inhibition at 10 µM [1] [%] | IC50 [1] [µM] | melting point [°C] | SMILES | viability at 24 h, 10 µM [2] [%] | viability at 24 h, 30 µM [2] [%] | inhibition at 10 µM (IL-6 production; Homo sapiens, Fibroblast) [%] | inhibition at 30 µM (IL-6 production; Homo sapiens, Fibroblast) [%] | IC50 (IL-6 production; [4]) [µM] | further results
5 ± 3 | 46 ± 6 | 3.6 ± 0.5 | – | Nc1nc2c(-c3ccccc3)cccc2[nH]1 [Compound 49a, 4-Phenyl-1H-benzo[d]imidazol-2-amine hydrobromide] | 93 ± 17 | 91 ± 15 | 12 ± 4 | 22 ± 1 | > 30 | –
-3 ± 6 | 49 ± 9 | – | 254 to 256 | Br.Nc1nc2c(-c3ccc(Cl)cc3)cccc2[nH]1 [Compound 49b, 4-(4-Chlorophenyl)-1H-benzo[d]imidazol-2-amine Hydrobromide] | – | – | – | – | – | –
-2 ± 6 | 25 ± 5 | – | 218 to 220 | Br.COc1ccc(-c2cccc3[nH]c(N)nc23)cc1 [Compound 49c, 4-(4-Methoxyphenyl)-1H-benzo[d]imidazol-2-amine Hydrobromide] | – | – | – | – | – | –
6 ± 3 | 61 ± 5 | 6.8 ± 0.8 | 202 to 205 | Br.Nc1nc2c(-c3cc(Cl)ccc3Cl)cccc2[nH]1 [Compound 49f, 4-(2,5-Dichlorophenyl)-1H-benzo[d]imidazol-2-amine Hydrobromide] | – | – | – | – | – | –
-3 ± 5 | 39 ± 7 | – | 61 to 66 | Br.COc1ccccc1-c1cccc2[nH]c(N)nc12 [Compound 49g, 4-(2-Methoxyphenyl)-1H-benzo[d]imidazol-2-amine Hydrobromide] | – | – | – | – | – | –
0 | 2 ± 3 | – | 70 to 72 | CCCNC1=Nc2cccc(-c3ccccc3)c2CN1 [Compound 60a] | – | – | – | – | – | MSK1 inhibitory activity (in words) [1]: inactivity
-2 ± 1 | 1 ± 2 | – | 77 to 82 | c1ccc(NC2=Nc3cccc(-c4ccccc4)c3CN2)cc1 [Compound 60b] | – | – | – | – | – | MSK1 inhibitory activity (in words) [1]: inactivity
72 ± 5 | 94 ± 4 | – | – | O=C1NCCc2[nH]c(-c3ccncc3)cc21 [PHA767491, reference compound] | 95 ± 9 | 87 ± 7 | 97 ± 1 | 98 ± 2 | 1 ± 0.1 | decrease of B cells infiltration in BAL (Balb/C mice; [6]): 68 ± 7%; decrease of eosinophil infiltration in BAL (Balb/C mice; [6]): 57 ± 7%; decrease of total cell infiltration in BAL (Balb/C mice; [6]): 51 ± 6%
